Test system: H4-II-E/CDDP cells
Assay: Cell proliferation inhibitory effects after treating for 7 days, WST-1 assay; resistance of H4-II-E/CDDP cells in comparison with H4-II-E cells
Type: cell-based, rat
Details: for resistance of H4-II-E/CDDP cells to the drug: H4-II-E/CDDP cells vs H4-II-E cells
Protocol: Rat hepatic cancer H4-II-E was obtained from Dainippon Pharmaceutical Co., Ltd. The H4-II-E cells were cultured in MEM medium, during which the concentration of CDDP was increased stepwise from 0.1 μg/ml to 1.0 μg/ml over a period of about one year, by which method, the CDDP resistant cell line (H4-II-E/CDDP) was prepared. The cells used in the experiment were those obtained by subculturing in a CDDP-containing MEM medium (CDDP 1.0 μg/ml) in vitro.
The cell proliferation inhibitory effects of cisplatin to H4-II-E cells and H4-II-E/CDDP cells after treating for 7 days were evaluated by WST-1 assay.

| Structure (SMILES) | resistance of H4-II-E/CDDP cells in comparison with H4-II-E cells (7 days treatment, WST-1 assay) | resistance of H4-II-E/CDDP cells to the drug |
| --- | --- | --- |
| N.N.[Cl][Pt][Cl] [cisplatin, Cisplatin] | about 10 folds |  |
| COc1cccc2c1C(=O)c1c(O)c3c(c(O)c1C2=O)C[C@@](O)(C(=O)CO)C[C@@H]3O[C@H]1C[C@H](N)[C@H](O)[C@H](C)O1 [doxorubicin] |  | did not show any resistance |
| COc1cc([C@@H]2c3cc4c(cc3[C@@H](O[C@@H]3O[C@@H]5CO[C@@H](C)O[C@H]5[C@H](O)[C@H]3O)[C@H]3COC(=O)[C@H]23)OCO4)cc(OC)c1O [etoposide] |  | did not show any resistance |

— patent publication US7459482B2, “Agent for treatment of cisplatin-resistant cancer” (Dainippon Sumitomo Pharma Co., Ltd., priority 2000, dated 2008)
